Measurements published in patent publication US7932273B2, “3-[(2-{[4-(hexyloxycarbonylaminoiminomethyl) phenylamino]methyl}-1-methyl-1H-benzimidazol-5-carbonyl)pyridin-2-ylamino]propionic acid ethylester methansulfonate and its use as a medicament” (Boehringer Ingelheim International GmbH, priority 2003, dated 2011).

What was measured:
Type in all cases: physicochemical
[1] = hygroscopicity of the crystalline modifications; settings: in all three crystalline modifications (form I, form II, hemihydrate)
[2] = solubility in physiologically acceptable acid aqueous media; settings: all three crystalline modifications
[3] = amorphization during grinding and compression; settings: all three crystalline modifications

- hygroscopicity [1]: non-hygroscopic
- solubility [2]: dissolves very easily
- amorphization [3]: low amorphization
SMILES: CCCCCCOC(=O)NC(=N)c1ccc(NCc2nc3cc(C(=O)N(CCC(=O)OCC)c4ccccn4)ccc3n2C)cc1 [methanesulfonate, ethyl 3-[(2-{[4-(hexyloxycarbonylaminoimino-methyl)phenylamino]methyl}-1-methyl-1H-benzimidazole-5-carbonyl)pyridin-2-ylamino]propionate methanesulfonate]
